Structures can show the parent of a compound that is named as a salt.
Legend:
JNK1 = JNK1 (Homo sapiens (Human), UniProt P45983); assay: In Vitro JNK1 Assay (TR-FRET, phosphorylation of GST-c-Jun); assay type: biochemical; conditions: 0.2 nM active JNK1 kinase, 26.7 nM GST-c-Jun, 2 μM ATP, 30 min at room temperature
Procedure, shortened: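 GST-c-Jun (residues 1-79) phosphorylation by JNK1 in 50 mM HEPES pH 7.0, MgCl2, 1 mM DTT, 0.1 mM Na3VO4, 0.2 mg/mL BSA, 30 min at room temperature. Stopped with EDTA plus anti-phospho-c-Jun antibody and read by TR-FRET 1 hr later. IC50 from percent inhibition over 10 serial dilutions.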

[1] = test system: phospho(Ser63)-c-jun in HK-2 cells; assay: Cell-Based Assay for JNK Inhibitors (in-cell ELISA, phospho(Ser63)-c-jun after TNFα); conditions: HK-2 cells (human proximal tubule cells), 60 minutes compound, then 10 ng/mL TNFα for 30 minutes
Protocol: Cell-Based Assay for JNK Inhibitors
The cell-based assay employed the in-cell ELISA method to determine the ability of compounds to prevent the generation of phospho(Ser63)-c-jun in HK-2 cells (human proximal tubule cells) in response to stimulation with tumor necrosis factor α (TNFα). In brief, for quantification of phospho(Ser63)-c-jun, the cells (in 96-well format) were fixed and permeablized then incubated sequentially with a rabbit anti-phospho-c-jun First Antibody specific for the presence of the phospho-Ser63 epitope and a donkey anti-rabbit IgG Second Antibody linked to horseradish peroxidase (HRP) for colorimetric quantitation of binding. […] Blank wells received no TNFα stimulation or compound. Additional Control wells received TNFα stimulation, but no compound.
Stock cultures of HK-2 cells (ATCC, Manassas, Va.) were grown under a 5% CO2/[…] atmosphere at 37 degrees C. in Keratinocyte-SFM medium (KSFM, Invitrogen, Grand Island, N.Y.) containing 5 μg/L epidermal growth factor and 5 mg/L bovine pituitary extract (both supplied with the medium), additionally supplemented with 10% (v/v) fetal calf serum (FCS; Invitrogen, Grand Island, N.Y.) and 1% (v/v) antibiotic-antimycotic (ABAM: Sigma, St. Louis, Mo.). For assays, cells were seeded in collagen coated 96-well polystyrene plates (BD Biosciences, Franklin Lakes, N.J.) at a density of 40,000 cells/well and cultured for 24 h in the same medium (100 μL/well) followed by a further 16-24 h in 100 μL of similar medium, but without FCS. […] Plates were then allowed to stand at room temperature for 20 minutes before being washed with 200 μL/well of PBS. (Further steps were performed immediately or the plates were stored at 4 degrees C. and the assay completed the next day.) To each well was added 100 μL 1% (v/v) TritonX-100 (Sigma, St. Louis, Mo.) in PBS followed by 20 minutes standing at room temperature, washing with 200 μL/well PBS, the addition of 100 μL/well of Quenching buffer (1% (v/v) hydrogen peroxide (Sigma, St. Louis, Mo.) and 0.1% (w/v) sodium azide (Fisher Scientific, Fair Lawn, N.J.)) in PBS and a further 20 minutes at room temperature. Plates were then washed twice with 200 μL/well of 0.1% (v/v) Tween-20 (Teknova, Hollister, Calif.) in PBS before addition of 200 μL/well of 2% BSA/0.1% Tween-20 in PBS and a further 1 hour at room temperature. […] After a further one hour, rabbit anti-phospho-c-jun-Ser63 is added directly to the solution in the Blank wells resulting in 1:250 dilution of this antibody. Plates were then placed on a slowly rotating platform at 4 degrees C. overnight. Wells were then washed thrice with 200 μL/well PBS/0.1% Tween-20. After addition of the third wash, the plates were placed on a slowly rotating platform for 15 minutes at room temperature. The final PBS/Tween20 wash was then replaced with 100 μL/well of donkey anti-rabbit HRP-labeled Second Antibody (Jackson ImmunoResearch Laboratory, West Grove, Pa.) diluted 1:10,000 in Antibody Dilution Buffer and the plates placed on a slowly rotating platform for 1 hour at room temperature. Wells were then washed four times with 200 μL/well PBS/0.1% Tween-20, including slow rotation for 30 minutes for the third wash and 10 minutes for the final wash. The wells were then washed once with 200 μL PBS without Tween-20. […] Absorbance was determined at a 450 nm wavelength using a spectrophotometer (Molecular Devices SpectraMax 250).

JNK1, sequence (P45983 whole entry, the tested form may be a part): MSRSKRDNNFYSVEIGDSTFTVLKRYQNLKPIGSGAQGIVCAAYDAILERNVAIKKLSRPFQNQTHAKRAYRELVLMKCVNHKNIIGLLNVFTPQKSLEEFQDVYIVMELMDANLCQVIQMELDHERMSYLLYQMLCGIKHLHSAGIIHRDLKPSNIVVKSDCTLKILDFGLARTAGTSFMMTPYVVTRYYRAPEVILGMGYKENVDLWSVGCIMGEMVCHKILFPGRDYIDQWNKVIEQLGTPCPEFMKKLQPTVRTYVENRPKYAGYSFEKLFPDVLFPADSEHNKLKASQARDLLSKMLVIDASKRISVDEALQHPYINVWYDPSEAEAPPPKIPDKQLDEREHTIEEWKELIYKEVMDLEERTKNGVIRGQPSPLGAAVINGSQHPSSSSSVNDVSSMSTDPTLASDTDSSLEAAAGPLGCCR

Structure (SMILES) | IC50 (JNK1) | EC50 [1]
COC(=O)c1c(CNC(=O)c2ccc(-c3ncc[nH]3)cc2)c(=O)c2ccc(C(F)(F)F)nc2n1-c1ccccc1 [Example I-153, 3-{[4-(1H-Imidazol-2-yl)-benzoylamino]-methyl}-4-oxo-1-phenyl-7-trifluoromethyl-1,4-dihydro-[1,8]naphthyridine-2-carboxylic acid methyl ester] | 0.023 µM | 4.6 µM
Cn1cc(C(=O)NCc2cn(-c3ccccc3)c3cc(Cl)ccc3c2=O)cn1 [Example I-30, 1-Methyl-1H-pyrazole-4-carboxylic acid (7-chloro-4-oxo-1-phenyl-1,4-di hydro-quinolin-3-ylmethyl)-amide] | 0.018 µM | 42 µM
CN1CCN(c2ncc(C(=O)NCc3cn(-c4ccccc4)c4cc(Cl)ccc4c3=O)s2)CC1 [Example I-95, 2-(4-Methyl-piperazin-1-yl)-thiazole-5-carboxylic acid (7-chloro-4-oxo-1-phenyl-1,4-dihydro-quinolin-3-ylmethyl)-amide] | 0.04 µM | 22 µM
O=C(NCc1cn(-c2ccccc2)c2cc(Cl)ccc2c1=O)c1ccc2nc[nH]c2c1 [Example I-33, 3H-Benzoimidazole-5-carboxylic acid (7-chloro-4-oxo-1-phenyl-1,4-dihydro-quinolin-3-ylmethyl)-amide] | 0.041 µM | 100 µM
O=C(NCc1cn(-c2ccccc2)c2cc(Cl)ccc2c1=O)c1cnc(N2CCCCC2)s1 [Example I-91, 2-Piperidin-1-yl-thiazole-5-carboxylic acid (7-chloro-4-oxo-1-phenyl-1,4-dihydro-quinolin-3-ylmethyl)-amide] | 0.016 µM | 19 µM
CNC(=O)C1CCN(c2ccc(C(=O)NCc3cn(-c4ccccc4)c4cc(Cl)ccc4c3=O)cn2)CC1 [Example I-72, 3,4,5,6-Tetrahydro-2H-[1,2′]bipyridinyl-4,5′-dicarboxylic acid 5′-[(7-chloro-4-oxo-1-phenyl-1,4-dihydro-quinolin-3-ylmethyl)-amide]-4-methylamide] | 0.027 µM | 100 µM
O=c1c(CNc2ncnc3cc(F)ccc23)cn(-c2ccccc2)c2cc(Cl)ccc12 [Example I-172, 7-Chloro-3-[(7-fluoro-quinazolin-4-ylamino)-methyl]-1-phenyl-1H-quinolin-4-one] | 0.079 µM | 100 µM
CN(C)C1CCN(c2ccc(C(=O)NCc3cn(-c4ccccc4)c4cc(Cl)ccc4c3=O)cn2)CC1 [Example I-75, 4-Dimethylamino-3,4,5,6-tetrahydro-2H-[1,2′]bipyridinyl-5′-carboxylic acid (7-chloro-4-oxo-1-phenyl-1,4-dihydro-quinolin-3-ylmethyl)-amide] | 0.031 µM | 14 µM
O=C(NCc1c(-c2ncco2)n(-c2ccccc2)c2ncccc2c1=O)c1ccn(Cc2ccccc2)c(=O)c1 [Example I-9, 1-Benzyl-2-oxo-1,2-dihydro-pyridine-4-carboxylic acid (2-oxazol-2-yl-4-oxo-1-phenyl-1,4-dihydro-[1,8]naphthyridin-3-ylmethyl)-amide] | 0.004 µM | 1.2 µM
O=C(NCc1cn(-c2ccccc2F)c2cc(F)ccc2c1=O)c1cnn(-c2ccccc2)c1 [Example I-103, 1-Phenyl-1H-pyrazole-4-carboxylic acid [7-fluoro-1-(2-fluoro-phenyl)-4-oxo-1,4-dihydro-quinolin-3-ylmethyl]-amide] |  | 12 µM
COC(=O)c1c(CNC(=O)c2ccc(-c3nnn(C)n3)cc2)c(=O)c2ccc(C(F)(F)F)nc2n1-c1ccccc1 [Example I-157, 3-{[4-(2-Methyl-2H-tetrazol-5-yl)-benzoylamino]-methyl}-4-oxo-1-phenyl-7-trifluoromethyl-1,4-dihydro-[1,8]-naphthyridine-2-carboxylic acid methyl ester] | 0.038 µM | 16 µM
O=C(NCc1cn(-c2ccccc2)c2cc(Cl)ccc2c1=O)c1ccn(Cc2ccccc2)c(=O)c1 [Example I-29, 1-Benzyl-2-oxo-1,2-dihydro-pyridine-4-carboxylic acid (7-chloro-4-oxo-1-phenyl-1,4-dihydro-quinolin-3-ylmethyl)-amide] | 0.013 µM | 5 µM
O=C(NCc1cn(-c2ccccc2)c2cc(Cl)ccc2c1=O)c1ccc(N2C[C@@H]3C[C@H]2CN3)nc1 (stereo in doubt) [Example I-89, trifluoroacetate] |  | 31 µM

More lines, now with the values ahead:

IC50 (JNK1) | EC50 [1] | Structure (SMILES)
0.065 µM | 100 µM | COC(=O)c1c(CNC(=O)c2ccccc2F)c(=O)c2ccc(Cl)cc2n1-c1ccccc1 [Example I-145, 7-Chloro-3-[(2-fluoro-benzoylamino)-methyl]-4-oxo-1-phenyl-1,4-dihydro-quinoline-2-carboxylic acid methyl ester]
0.004 µM | 5.7 µM | COC(=O)c1c(CNC(=O)c2ccc(S(C)(=O)=O)cc2)c(=O)c2ccc(Cl)cc2n1-c1ccccc1 [Example I-109, 7-chloro-3-[(4-methanesulfonyl-benzoylamino)-methyl]-4-oxo-1-phenyl-1,4-dihydroquin-oline-2-carboxylic acid methyl ester]
0.035 µM | 37 µM | CN(C)C(=O)c1c(CNC(=O)c2ccc(N3CCOCC3)nc2)c(=O)c2ccc(Cl)cc2n1-c1ccccc1 [Example I-13, 7-Chloro-3-{[(6-morpholin-4-yl-pyridine-3-carbonyl)-amino]-methyl}-4-oxo-1-phenyl-1,4-dihydro-quinoline-2-carboxylic acid dimethylamide]
0.05 µM | 11 µM | COC(=O)c1c(CNC(=O)c2ccc(-c3nnn(C)n3)cc2)c(=O)c2ccc(Cl)cc2n1-c1ccccc1 [Example I-129, 7-Chloro-3-{[4-(2-methyl-2H-tetrazol-5-yl)-benzoylamino]-methyl}-4-oxo-1-phenyl-1,4-dihydro-quinoline-2-carboxylic acid methyl ester]
0.031 µM | 38 µM | COC(=O)c1c(CNC(=O)c2ccc(-c3csc(C)n3)cc2)c(=O)c2ccc(Cl)cc2n1-c1ccccc1 [Example I-127, 7-Chloro-3-{[4-(2-methyl-thiazol-4-yl)-benzoylamino]-methyl}-4-oxo-1-phenyl-1,4-dihydro-quinoline-2-carboxylic acid methyl ester]
0.08 µM | 26 µM | COc1ccc(C(=O)NCc2cn(-c3ccccc3)c3cc(Cl)ccc3c2=O)cc1OC [Example I-57, N-(7-Chloro-4-oxo-1-phenyl-1,4-dihydro-quinolin-3-ylmethyl)-3,4-dimethoxy-benzamide]
0.14 µM | 11 µM | CN(C)C(=O)c1c(CNC(=O)c2ccc(N3CCC(CO)CC3)nc2)c(=O)c2ccc(Cl)cc2n1-c1ccccc1 [Example I-24, 4-Hydroxymethyl-3,4,5,6-tetrahydro-2H-[1,2′]bipyridinyl-5′-carboxylic acid (7-chloro-2-dimethylcarbamoyl-4-oxo-1-phenyl-1,4-dihydro-quinolin-3-ylmethyl)-amide]
 | 2.2 µM | COC(=O)c1c(CNC(=O)c2cnc(N3CCOCC3)s2)c(=O)c2ccc(Cl)cc2n1-c1ccccc1 [Example I-116, Chloro-3-{[(2-morpholin-4-yl-thiazole-5-carbonyl)-amino]-methyl}-4-oxo-1-phenyl-1,4-dihydro-quinoline-2-carboxylic acid methyl ester]
